{"source": "paper PMC9946977", "about": "“Identification of linderalactone as a natural inhibitor of SHP2 to ameliorate CCl4-induced liver fibrosis” (Frontiers in Pharmacology, 2023)", "key": {"[1]": {"system": "TGF-β/Smad pathway", "assay": "CCl4 mouse model: liver TGF-β/Smad signalling (real-time PCR, Western blot)", "type": "in vivo, C57BL/6 mice", "experimental": "C57BL/6 mice (20 ± 2 g) were obtained from Hangzhou Medical College Experimental Animal Center (Hangzhou, China). The animals were maintained under controlled temperature (22°C ± 1°C), humidity (50%), and light (12 h light/12 h dark). The animals were fed a standard laboratory diet and provided with free access to tap water. All animals received humane care according to institutional animal care guidelines approved by the Experimental Animal Ethical Committee of Hangzhou Medical College. Forty mice were randomly divided into six groups: (1) vehicle control (n = 7); (2) CCl4 model (n = 7); (3) CCl4 + LIN (20 mg/kg) (n = 7); (4) CCl4 + LIN (40 mg/kg) (n = 7); (5) LIN (40 mg/kg) (n = 7); and (6) CCl4 + silymarin (SIL) (200 mg/kg) (n = 5). LIN and SIL were dissolved in 0.5% CMC-Na solution. Mice were administered LIN or SIL (intragastric administration, i.g.) once per day and CCl4 (intraperitoneal injection, i.p.; mixed 1:3 in olive oil, 2 mL/kg) twice per week for 4 weeks. Mice in the vehicle control group received olive oil (i.p. twice a week, 4 weeks) and 0.5% CMC-Na (i.g. every day, 4 weeks). After treatment, the mice were sacrificed, and plasma and liver tissues were collected and further analysed.\n(§1) Total RNA was extracted from liver tissues and LX-2 cells using the TRIzol reagent. cDNA was synthesised using a PrimeScript RT Master Mix kit. Real-time PCR was performed using SYBR Green premix according to the manufacturer’s instructions. Relative expression of target genes was normalised to actin, analysed by the delta-delta-CT method and given as a ratio compared with the vehicle control. Primer sequences used in this study are listed in Supplementary Material.\nLiver proteins were isolated by using a lysis buffer containing 50 mM Tris-HCl (pH7.5), 150 mM NaCl, 1 mM EDTA, 20 mM NaF, 0.5% NP-40, 10% glycerol, 1 mM phenylmethylsulphonyl fluoride, 10 μg/mL aprotinin, 10 μg/mL leupeptin, and 10 μg/mL pepstatin. The supernatants were collected after centrifugation at 3,000 g for 10 min at 4°C, and the protein concentration of each sample was determined and normalised to the same protein concentration. Protein samples were separated by sodium dodecyl sulphate-polyacrylamide gel electrophoresis and transferred onto polyvinylidene fluoride membranes. The membranes were incubated with the indicated primary and secondary antibodies, and the proteins in the membranes were visualised using a chemiluminescence kit. TGF-® antibody (CST, 3711), Smad 2/3 antibody (CST, 8685), p-Smad 2/3 antibody (CST, 8828), anti-α-SMA antibody (Santa Cruz, SC-53142), vimentin antibody (ABclonal, A19607), desmin antibody (ABclonal, A3736), GAPDH antibody (Beyotime, AF0006), and SHP2 antibody (CST, 3397). […]"}, "[2]": {"system": "mouse liver", "assay": "LIN alone in mice (toxicity)", "type": "in vivo, C57BL/6 mice", "settings": "LIN alone 40 mg/kg i.g. once per day, 4 weeks", "experimental": "C57BL/6 mice (20 ± 2 g) were obtained from Hangzhou Medical College Experimental Animal Center (Hangzhou, China). The animals were maintained under controlled temperature (22°C ± 1°C), humidity (50%), and light (12 h light/12 h dark). The animals were fed a standard laboratory diet and provided with free access to tap water. All animals received humane care according to institutional animal care guidelines approved by the Experimental Animal Ethical Committee of Hangzhou Medical College. […] After treatment, the mice were sacrificed, and plasma and liver tissues were collected and further analysed.\nSerum was collected from blood samples after centrifugation at 860 × g for 15 min. Serum ALT (Nanjing Jiancheng Bioengineering Institute, C010-2-1) and AST (Nanjing Jiancheng Bioengineering Institute, C009-2-1) activities were measured using kits, according to the manufacturer’s instructions. Liver hydroxyproline content was determined using the alkaline hydrolysis method, as described in the kits. Serum levels of laminin (LN) were measured using ELISA kits, according to the manufacturer’s instructions (Shanghai YANJIN Biological Technology Co., LTD, F12019). […]"}, "[3]": {"system": "LX-2 cells", "assay": "LX-2 cells: fibrogenic gene expression and Smad2/3 phosphorylation", "type": "cell-based, human", "experimental": "(§2) The LX-2 cell line was purchased from the Cell Bank Type Culture Collection of the Chinese Academy of Sciences (Shanghai, China). Cells were cultured in DMEM supplemented with 10% [v/v] foetal bovine serum, 2 mM glutamine, 100 U/ml penicillin, and […] streptomycin. SHP-2 and control siRNAs were obtained from Suzhou GenePharma Co., Ltd. (sense 5'-3': GAGAGAGGAAAGAGUAAAUTT; antisense 5'-3': AUUUACUCUUUCCUCUCUCTT). Transfection was performed according to the manufacturer’s instructions. Subsequent real-time PCR and western blotting were performed to analyse transfection efficiency.\nTotal RNA was extracted from liver tissues and LX-2 cells using the TRIzol reagent. cDNA was synthesised using a PrimeScript RT Master Mix kit. […] Relative expression of target genes was normalised to actin, analysed by the delta-delta-CT method and given as a ratio compared with the vehicle control. […]\nLiver proteins were isolated by using a lysis buffer containing 50 mM Tris-HCl (pH7.5), 150 mM NaCl, 1 mM EDTA, 20 mM NaF, 0.5% NP-40, 10% glycerol, 1 mM phenylmethylsulphonyl fluoride, 10 μg/mL aprotinin, 10 μg/mL leupeptin, and 10 μg/mL pepstatin. The supernatants were collected after centrifugation at 3,000 g for 10 min at 4°C, and the protein concentration of each sample was determined and normalised to the same protein concentration. […]"}, "[4]": {"system": "SHP2-depleted LX-2 cells", "assay": "SHP2 knockdown (siRNA) LX-2 cells treated with LIN", "type": "cell-based, human", "settings": "LX-2 cells transfected with SHP2 siRNA", "experimental": "as §2, §1"}}, "data": [{"smiles": "C/C1=C\\CCC2=C[C@@H](OC2=O)c2c(C)coc2C1", "note": "[LIN, linderalactone]", "values": [{"measurement": "hepatic TGF-β protein expression", "setting": "[1]; CCl4 mice, LIN 40 mg/kg, Western blot", "result": "reduced"}, {"measurement": "hepatic TGF-β mRNA expression", "setting": "[1]; CCl4 mice, LIN 40 mg/kg, real-time PCR", "result": "reduced"}, {"measurement": "Smad2/3 phosphorylation in the liver", "setting": "[1]; CCl4 mice, Western blot", "result": "significantly inhibited"}, {"measurement": "expression level of SHP2 protein", "setting": "[1]; liver (Figure 4D) and LX-2 cells (Figure S2), Western blot", "result": "do not affect"}, {"measurement": "ALT/AST", "setting": "[2]", "result": "no obvious alteration"}, {"measurement": "pathological changes in mouse liver tissue", "setting": "[2]", "result": "no obvious alteration"}, {"measurement": "fibrogenic gene expression (e.g., ACTA2, VIM, TGF-β, FN1, DES, COL1A1)", "setting": "[3]; 10 μM LIN, 24 h, qPCR", "result": "significantly decreased"}, {"measurement": "phosphorylation level of smad2/3", "setting": "[3]; LIN 5 and 10 μM, Western blot", "result": "significant reduced"}, {"measurement": "sensitivity of fibrogenic gene expression to LIN treatment", "setting": "[4]", "result": "much less sensitive"}]}]}
